Experiments:
Format in all cases: in vivo
Sprague-Dawley rats = assay: Withdrawal latencies after noxious laser thermal stimulation of ears or hindpaws after intranasal administration; conditions: rat, intranasal 10 nmoles/kg, tested from five minutes after final application
Text: One way to test activity of an analgesic agent in a rat model is by treatment-induced changes in latencies (times) of withdrawal in response to noxious heating of the skin, typically using an ear, the face or a hindpaw. Thus, application of coherent or non-coherent (non-laser) radiant heat to the ear, the face or hindpaw will elicit rapid withdrawal movements. […] Transmucosal or transdermal administration of analgesic agents to the trigeminal nerve to reduce trigeminal nerve-associated pain can be tested for regional and/or systemic analgesia. The rostral external part of a rat's ear is innervated by a branch of the mandibular nerve, itself a branch of the trigeminal nerve, thus after treatment an increase in latency to withdrawal time would indicate regional analgesia. […]
Sprague-Dawley rats (Charles River Laboratories) were lightly anesthetized with urethane and placed with minimal restraint on a heating pad to maintain their body temperature at 37° C. […] Baseline withdrawal latencies were measured by delivering 4 separate stimuli with a resting period of approximately 15 minutes between each stimulus. […] As described above, testing sessions were videotaped and analyzed.

[1] = test system: single pain sensing nerve cells in the trigeminal ganglion; assay: Nerve impulses of single trigeminal ganglion neurons in response to noxious laser pulses to the face; conditions: rat, 10 nmoles applied to the nose, FIG. 2
Description: Sprague-Dawley rats (Charles River Laboratories) were anesthetized with isofluorane and a platinum electrode was inserted transcranially into the trigeminal ganglion. Nerve impulses (action potential) were recorded from single pain sensing nerve cells in the trigeminal ganglion in response to application of noxious laser pulses to the face of the rats. After recording responses to several identical laser pulses, 10 nmoles of oxytocin was applied to the nose of the rats. Thereafter, identical laser pulses were once again applied and recorded.

[2] = test system: trigeminal nucleus caudalis wide dynamic range (WDR) neurons; assay: Electrical stimulation-induced responses of trigeminal nucleus caudalis WDR neurons; conditions: rat
Description: Male Sprague-Dawley rats (Charles River Laboratories) were anesthetized with isoflurane and used in the following experiments. In the anesthetized rats, single unit, extracellular recordings were performed in trigeminal nucleus caudalis while stimulating the ipsilateral facial skin with constant-current bipolar electrical stimulation. Epoxylate-insulated, tungsten microelectrodes (10 MOhm) were used under stereotaxic coordinate control.
Shown are responses (action potentials per 30 stimuli) to repeated stimulation of a rat's face before oxytocin administration (pre-oxytocin). After administration with oxytocin at approximately 0.1 IU, responses were recorded every five minutes for 65 minutes. A second administration of oxytocin at the same dosage was administered at approximately 70 minutes after the first dose. The approximate site of the administration of the electrical stimulation is indicated by the black spot on a map of the rat's face (FIG. 3B).

[3] = test system: trigeminal nucleus caudalis wide dynamic range (WDR) neurons; assay: Long-pulse laser-induced responses of trigeminal nucleus caudalis WDR neurons; conditions: rat, intranasal 0.025 ml of 0.05 mg/ml
Description: Male Sprague-Dawley rats (Charles River Laboratories) were anesthetized with isoflurane and used in the following experiments. In the anesthetized rats, single unit, extracellular recordings were performed in trigeminal nucleus caudalis while stimulating the ipsilateral facial skin with diode laser or constant-current bipolar electrical stimulation. Epoxylate-insulated, tungsten microelectrodes (10 MOhm) were used under stereotaxic coordinate control. […] Shown are responses (action potentials per second) to an 8 second-duration, 425 mA intensity laser stimulus to the site indicated by the black spot on a map of the rat's face (FIG. 4E).

[4] = test system: second-order neurons in the trigeminal nucleus caudalis; assay: Electrical stimulus-induced windup; conditions: rat, intranasal 0.025 ml of 0.05 mg/ml
Text: Male Sprague-Dawley rats (Charles River Laboratories) were anesthetized with isoflurane and used in the following experiments. […] Needle electrodes were inserted subcutaneously at the site indicated in FIG. 5A by the black spot on the rat's head, and the skin was stimulated at 0.66 Hz, 2 msec duration, 3×C-fiber threshold for >25 times.

[5] = intranasal approximately 0.1 IU, first dose
[6] = second intranasal dose approximately 0.1 IU at approximately 70 minutes after the first

Compound: Tyr-Gly-Gly-Phe-Met [met-enkephalin]
- regional analgesic effect (ear withdrawal latency) (Sprague-Dawley rats; laser to ears, FIG. 1A): achieved a regional analgesic effect in the head region
- systemic analgesic effect (hindpaw withdrawal latency) (Sprague-Dawley rats; laser to hindpaws, FIG. 1B): without a systemic analgesic effect at the hindpaw

Compound: CC[C@H](C)[C@@H]1NC(=O)[C@H](Cc2ccc(O)cc2)NC(=O)[C@@H](N)CSSC[C@@H](C(=O)N2CCC[C@H]2C(=O)N[C@@H](CC(C)C)C(=O)NCC(N)=O)NC(=O)[C@H](CC(N)=O)NC(=O)[C@H](CCC(N)=O)NC1=O [Oxytocin, Cys-Tyr-Ile-Gln-Asn-Cys-Pro-Leu-Gly]
- neuronal response (average nerve impulses per laser pulse), post- vs pre-treatment [1]: significantly (p<0.05) reduced
- responses (action potentials per 30 stimuli) after first administration ([2]; intranasal approximately 0.1 IU, electrical stimulation of face, FIG. 3A): significant reduction in responses
- time after first administration at which reduction in responses began [2, 5]: 10 min
- time post treatment until which reduction continued (responses then began to increase) [2, 5]: 50 min
- responses (action potentials per 30 stimuli) after second administration [2, 6]: significant reduction in responses
- time to reduction in responses after second administration [2, 6]: ≤ 10 min

Compound: C[C@@H](O)[C@@H]1NC(=O)[C@H](CCCCN)NC(=O)[C@@H](Cc2c[nH]c3ccccc23)NC(=O)[C@H](Cc2ccccc2)NC(=O)[C@@H](NC(=O)[C@H](N)Cc2ccccc2)CSSC[C@@H](C(=O)N[C@H](CO)[C@@H](C)O)NC1=O [octreotide]
- response five minutes post-treatment ([3]; 8 second 425 mA laser stimulus, 5 minutes, FIG. 4B): no detectable reduction in response
- response at 10 minutes post-treatment ([3]; 8 second 425 mA laser stimulus, 10 minutes, baseline 42 spikes): 5 spikes
- reduction of response at 10 minutes post-treatment ([3]; 10 minutes vs pre-treatment baseline): 88%
- response 25 minutes post-treatment ([3]; 25 minutes, FIG. 4D): recovered
- reduction of total number of action potentials ([4]; 10 minutes after administration vs before): 19.4%
- total number of action potentials during the stimulation period ([4]; 10 minutes after administration, 25 stimulations at 0.66 Hz, 506 before treatment): 408

From patent US8258096B2, “Therapy procedure for drug delivery for trigeminal pain” (The Board of Trustees of the Leland Stanford Junior …, priority 2005, dated 2012)
